# Assay results: the supplement of paper PMC11061612
# Experiments:
# [1] = test system: CAL-120 (Breast Carcinoma); assay: combination Emax (second highest fraction inhibited in the dose matrix, 72 h); higher = more inhibition; extreme values may be limits of the assay
# Method in brief: (§1)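 Bliss excess equals the observed combination effect minus the expected value EA + EB − EA·EB, where EA and EB are the effects of each agent alone. Combination Emax is the second-highest inhibition within the matrix. Inhibition was scaled from CellTiter-Glo 2.0 luminescence, with 0 set by vehicle wells and 1 by blank wells, after 72 hours of two-drug dosing of cells plated in 1536-well plates.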
# [2] = test system: NCI-H2342 (Lung Adenocarcinoma); assay: as above
# Method in brief: as §1
# [3] = test system: PANC-03-27 (Pancreatic Carcinoma); assay: as above
# Method in brief: as §1
# [4] = test system: CAL-62 (Thyroid Gland Carcinoma); assay: as above
# Method in brief: as §1
# [5] = test system: MKN45 (Gastric Carcinoma); assay: as above
# Method in brief: as §1
# [6] = test system: VAL (B-Cell Non-Hodgkin's Lymphoma); assay: as above
# Method in brief: as §1
# A2058 (Melanoma) = assay: as above
# Method in brief: as §1
# [7] = test system: KE-37 (T-Lymphoblastic Leukemia); assay: as above
# Method in brief: as §1
# SF268 (Low Grade Glioma) = assay: as above
# Method in brief: as §1
# [8] = test system: MFE-280 (Endometrial Carcinoma); assay: as above
# Method in brief: as §1
# [9] = test system: NCI-H446 (Small Cell Lung Carcinoma); assay: as above
# Method in brief: as §1
# [10] = test system: RCM-1 (Colorectal Carcinoma); assay: as above
# Method in brief: as §1
# [11] = test system: PC-3_[JPC-3] (Lung Adenocarcinoma); assay: as above
# Method in brief: as §1
# WM793B (Melanoma) = assay: as above
# Method in brief: as §1
# [12] = test system: OVMIU (Ovarian Carcinoma); assay: as above
# Method in brief: as §1
# [13] = test system: COLO-680N (Esophageal Squamous Cell Carcinoma); assay: as above
# Method in brief: as §1
# [14] = test system: RERF-GC-1B (Gastric Carcinoma); assay: as above
# Method in brief: as §1
# SF539 (Glioblastoma) = assay: Bliss excess, mean over the matrix (fraction); higher = more synergy
# Method in brief: as §1
# GB-1 (Glioblastoma) = assay: as above
# Method in brief: as §1
# [15] = test system: RKN (Other Solid Carcinomas); assay: as above
# Method in brief: as §1
compound,measurement,setting,value
"Cc1c2c(nn1C)CSCc1cc(n(C)n1)CSc1cc(c3ccccc3c1)OCCCc1c(C(=O)O)n(C)c3c-2c(Cl)ccc13 [AZD5991] + Cn1cnc2c(F)c(Nc3ccc(Br)cc3Cl)c(C(=O)NOCCO)cc21 [Selumetinib] (first compound max 1 µM, 7x7, partner max 3 µM)",combination Emax,[1],0.167
same,combination Emax,[2],0.341
same,combination Emax,[3],0.597
same,combination Emax,[4],0.354
same,combination Emax,[5],0.508
same,combination Emax,[6],0.724
same,combination Emax,A2058 (Melanoma),0.991
same,combination Emax,[7],0.947
same,combination Emax,SF268 (Low Grade Glioma),0.269
same,combination Emax,[8],0.278
same,combination Emax,[9],0.563
same,combination Emax,[10],0.651
same,combination Emax,[11],0.269
same,combination Emax,WM793B (Melanoma),0.454
same,combination Emax,[12],0.383
same,combination Emax,[13],0.236
same,combination Emax,[14],0.998
same,Bliss excess,SF539 (Glioblastoma),-0.0344
same,Bliss excess,GB-1 (Glioblastoma),-0.0299
same,Bliss excess,[15],-0.0147
"CC(=O)Nc1cccc(-n2c(=O)n(C3CC3)c(=O)c3c(Nc4ccc(I)cc4F)n(C)c(=O)c(C)c32)c1 [Trametinib] + Cc1nc(-c2cn3c(n2)-c2ccc(-c4cnn(C(C)(C)C(N)=O)c4)cc2OCC3)n(C(C)C)n1 [Taselisib] (first compound max 1 µM, 7x7, partner max 10 µM)",combination Emax,[1],0.564
same,combination Emax,[2],0.5
same,combination Emax,[3],0.982
same,combination Emax,[4],0.765
same,combination Emax,[5],0.799
same,combination Emax,[6],0.424
same,combination Emax,A2058 (Melanoma),1
same,combination Emax,[7],0.676
same,combination Emax,SF268 (Low Grade Glioma),0.484
same,combination Emax,[8],0.939
same,combination Emax,[9],0.94
same,combination Emax,[10],0.871
same,combination Emax,[11],0.882
same,combination Emax,WM793B (Melanoma),0.855
same,combination Emax,[12],0.973
same,combination Emax,[13],0.501
same,combination Emax,[14],0.949
same,Bliss excess,SF539 (Glioblastoma),0.177
same,Bliss excess,GB-1 (Glioblastoma),0.159
same,Bliss excess,[15],0.124
"CN(C)CCCOc1ccc(-c2ccc3ncc4c(c3c2)n(C2CCOCC2)c(=O)n4C)cn1 [AZD0156] + C[C@@H]1COCCN1C2=NC(=NC(=C2)C3(CC3)[S@](=N)(=O)C)C4=C5C=CNC5=NC=C4 [AZD6738] (first compound max 1 µM, 7x7, partner max 10 µM)",combination Emax,[1],0.437
same,combination Emax,[2],0.166
same,combination Emax,[3],0.862
same,combination Emax,[4],0.755
same,combination Emax,[5],0.791
same,combination Emax,[6],0.911
same,combination Emax,A2058 (Melanoma),0.225
same,combination Emax,[7],1
same,combination Emax,SF268 (Low Grade Glioma),0.497
same,combination Emax,[8],0.335
same,combination Emax,[9],0.779
same,combination Emax,[10],0.864
same,combination Emax,[11],0.329
same,combination Emax,WM793B (Melanoma),0.891
same,combination Emax,[12],0.396
same,combination Emax,[13],0.267
same,combination Emax,[14],0.491
same,Bliss excess,SF539 (Glioblastoma),0.0274
same,Bliss excess,GB-1 (Glioblastoma),-0.0132
same,Bliss excess,[15],-0.0126
"Cc1nc(Nc2ncc(C(=O)Nc3c(C)cccc3Cl)s2)cc(N2CCN(CCO)CC2)n1 [Dasatinib] + CC(=O)Nc1cccc(-n2c(=O)n(C3CC3)c(=O)c3c(Nc4ccc(I)cc4F)n(C)c(=O)c(C)c32)c1 [Trametinib] (first compound max 2 µM, 7x7, partner max 1 µM)",combination Emax,[1],0.525
same,combination Emax,[2],0.232
same,combination Emax,[3],0.713
same,combination Emax,[4],0.955
same,combination Emax,[5],0.79
same,combination Emax,[6],0.691
same,combination Emax,A2058 (Melanoma),0.644
same,combination Emax,[7],0.32
same,combination Emax,[8],0.486
same,combination Emax,[9],0.444
same,combination Emax,[10],0.798
same,combination Emax,[11],0.738
same,combination Emax,WM793B (Melanoma),0.705
same,combination Emax,[12],0.798
same,combination Emax,[13],0.554
same,combination Emax,[14],1
same,Bliss excess,SF539 (Glioblastoma),-0.0177
same,Bliss excess,GB-1 (Glioblastoma),0.121
same,Bliss excess,[15],0.0011
"Cn1cnc2c(F)c(Nc3ccc(Br)cc3Cl)c(C(=O)NOCCO)cc21 [Selumetinib] + CCN(CCO)CCCOc1ccc2c(Nc3cc(CC(=O)Nc4cccc(F)c4)[nH]n3)ncnc2c1 [AZD2811] (first compound max 10 µM, 7x7, partner max 1 µM)",combination Emax,[1],0.188
same,combination Emax,[2],0.365
same,combination Emax,[3],0.534
same,combination Emax,[4],0.291
same,combination Emax,[5],0.674
same,combination Emax,[6],0.678
same,combination Emax,A2058 (Melanoma),0.649
same,combination Emax,[7],1
same,combination Emax,SF268 (Low Grade Glioma),0.275
same,combination Emax,[8],0.161
same,combination Emax,[9],0.91
same,combination Emax,[10],0.656
same,combination Emax,[11],0.189
same,combination Emax,WM793B (Melanoma),0.528
same,combination Emax,[12],0.407
same,combination Emax,[13],0.188
same,combination Emax,[14],0.436
same,Bliss excess,SF539 (Glioblastoma),-0.0193
same,Bliss excess,GB-1 (Glioblastoma),-0.0512
same,Bliss excess,[15],-0.0232
"C=CCn1c(=O)c2cnc(Nc3ccc(N4CCN(C)CC4)cc3)nc2n1-c1cccc(C(C)(C)O)n1 [AZD1775] + C1CN(CCC1(C(=O)N[C@@H](CCO)C2=CC=C(C=C2)Cl)N)C3=NC=NC4=C3C=CN4 [Capivasertib] (first compound max 3 µM, partner max 3 µM)",combination Emax,[1],0.727
same,combination Emax,[2],0.282
same,combination Emax,[3],0.771
same,combination Emax,[4],0.868
same,combination Emax,[5],0.741
same,combination Emax,[6],0.841
same,combination Emax,A2058 (Melanoma),0.886
same,combination Emax,[7],1
same,combination Emax,SF268 (Low Grade Glioma),0.456
same,combination Emax,[8],0.451
same,combination Emax,[9],0.972
same,combination Emax,[10],0.628
same,combination Emax,[11],0.577
same,combination Emax,WM793B (Melanoma),0.606
same,combination Emax,[12],0.749
same,combination Emax,[13],0.306
same,Bliss excess,SF539 (Glioblastoma),-0.0878
same,Bliss excess,GB-1 (Glioblastoma),-0.0211
same,Bliss excess,[15],-0.0476
